Test results taken from patent publication US9919998B2, “Antibacterial agents: Nα-aroyl-N-aryl-phenylalaninamides” (priority 2014, dated 2018).
In brackets after ≈: the same amount, converted by molar mass.

Experiments:
Assay type in all cases: cell-based
[1] = tested on: Mycobacterium avium ATCC 25291; assay: Microplate Alamar Blue assay (MABA) MIC, M. avium; conditions: ATCC25291, M. avium ATCC 25291
Excerpt: (§1) Minimal inhibitory concentrations (MICs) in Mycobacterium tuberculosis H37Rv and Mycobacterium avium ATCC 25291 were quantified using microplate Alamar Blue assays as described (MABA; [Collins, L. & Franzblau, S. (1997) Microplate Alamar Blue assay versus BACTEC 460 system for high-throughput screening of compounds against Mycobacterium tuberculosis and Mycobacterium avium. Antimicrob. Agents Chemother. 41, 1004-1009]).

[2] = tested on: Vero E6 ATCC CRL1586 cells; assay: Mammalian-cell cytotoxicity, minimal cytotoxic concentration (CellTiter96)
Description: Minimal cytotoxic concentrations (MCCs) against mammalian cells in culture were determined using Vero E6 ATCC CRL1586 cells and the CellTiter96 assay kit (Promega, Inc.). […]

[3] = tested on: Mycobacterium tuberculosis H37Rv; assay: Microplate Alamar Blue assay (MABA) MIC, M. tuberculosis; conditions: read-out: MIC Mycobacterium tuberculosis H37Rv
Excerpt: as §1

[4] = tested on: Mycobacterium smegmatis ATCC 19420; assay: Broth microdilution MIC, M. smegmatis; conditions: Mycolicibacterium smegmatis, ATCC19420, M. smegmatis ATCC 19420; read-out: MIC Mycobacterium smegmatis ATCC 19420
Excerpt: MICs in Mycobacterium smegmatis ATCC 19420 and Mycobacterium smegmatis ATCC 19420 derivatives were quantified using broth microdilution assays as described [Clinical and Laboratory Standards Institute (CLSI/NCCLS) (2009) Methods for Dilution Antimicrobial Susceptibility Tests for Bacteria That Grow Aerobically; Approved Standard, Eighth Edition. CLIS Document M07-A8 (CLIS, Wayne Pa.)].

Structure (SMILES)	MIC [1]	MCC mammalian cells Vero E6 ATCC CRL1586 [2]	MIC [3]	MIC [4]
Cc1ccc(Cl)cc1NC(=O)C(Cc1ccc(O)cc1)NC(=O)c1cccs1 (stereo not drawn) [IX-94, N-(1-((5-chloro-2-methylphenyl)amino)-3-(4-hydroxyphenyl)-1-oxopropan-2-yl)thiophene-2-carboxamide]	3.12 µg/mL (≈ 7.53 µM)	58 µg/mL	3.12 µg/mL (≈ 7.53 µM)	0.78 µg/mL (≈ 1.88 µM)
O=C(NC(Cc1ccccc1)C(=O)Nc1cccc2cc[nH]c12)c1ccccc1Cl (stereo not drawn) [IX-95, N-(1-((1H-indol-7-yl)amino)-1-oxo-3-phenylpropan-2-yl)-2-chlorobenzamide]	25 µg/mL (≈ 59.8 µM)	20 µg/mL	12.5 µg/mL (≈ 29.9 µM)	0.39 µg/mL (≈ 0.933 µM)
O=C(NC(Cc1ccccc1)C(=O)Nc1cccc2cc[nH]c12)c1ccccc1F (stereo not drawn) [IX-96, N-(1-((1H-indol-7-yl)amino)-1-oxo-3-phenylpropan-2-yl)-2-fluorobenzamide]	25 µg/mL (≈ 62.3 µM)	44 µg/mL	12.5 µg/mL (≈ 31.1 µM)	0.78 µg/mL (≈ 1.94 µM)
Cc1ccccc1C(=O)NC(Cc1ccccc1)C(=O)Nc1cccc2cc[nH]c12 (stereo not drawn) [IX-97, N-(1-((1H-indol-7-yl)amino)-1-oxo-3-phenylpropan-2-yl)-2-methylbenzamide]	12.5 µg/mL (≈ 31.4 µM)	15 µg/mL	6.25 µg/mL (≈ 15.7 µM)	0.39 µg/mL (≈ 0.981 µM)
O=C(NC(Cc1ccccc1)C(=O)Nc1cccc2c1OCO2)c1cccs1 (stereo not drawn) [IX-98, N-(1-(benzo[d][1,3]dioxol-4-ylamino)-1-oxo-3-phenylpropan-2-yl)thiophene-2-carboxamide]	3.12 µg/mL (≈ 7.92 µM)	13 µg/mL	6.25 µg/mL (≈ 15.8 µM)	0.195 µg/mL (≈ 0.494 µM)
O=C(NC(Cc1ccccc1)C(=O)Nc1cccc2c1OCO2)c1ccccc1F (stereo not drawn) [IX-99, N-(1-(benzo[d][1,3]dioxol-4-ylamino)-1-oxo-3-phenylpropan-2-yl)-2-fluorobenzamide]	6.25 µg/mL (≈ 15.4 µM)	>100 µg/mL	3.12 µg/mL (≈ 7.69 µM)	0.195 µg/mL (≈ 0.48 µM)
O=C(NC(Cc1ccccc1)C(=O)Nc1ccccc1OC(F)F)c1cccs1 (stereo not drawn) [IX-100, N-(1-((2-(difluoromethoxy)phenyl)amino)-1-oxo-3-phenylpropan-2-yl)thiophene-2-carboxamide]	6.25 µg/mL (≈ 15 µM)	42 µg/mL	6.25 µg/mL (≈ 15 µM)	0.39 µg/mL (≈ 0.936 µM)
O=C(NC(Cc1ccccc1)C(=O)Nc1ccccc1OC(F)F)c1ccccc1F (stereo not drawn) [IX-101, N-(1-((2-(difluoromethoxy)phenyl)amino)-1-oxo-3-phenylpropan-2-yl)-2-fluorobenzamide]	6.25 µg/mL (≈ 14.6 µM)	>100 µg/mL	6.25 µg/mL (≈ 14.6 µM)	0.39 µg/mL (≈ 0.91 µM)
Cc1ccc(Br)cc1NC(=O)C(Cc1ccc(O)cc1)NC(=O)c1ccccc1 (stereo not drawn) [IX-103, N-(1-((5-bromo-2-methylphenyl)amino)-3-(4-hydroxyphenyl)-1-oxopropan-2-yl)benzamide]	12.5 µg/mL (≈ 27.6 µM)	62 µg/mL	12.5 µg/mL (≈ 27.6 µM)	0.78 µg/mL (≈ 1.72 µM)
O=C(NC(Cc1ccccc1)C(=O)Nc1cccc2[nH]ccc12)c1cccs1 (stereo not drawn) [IX-104, N-(1-((1H-indol-4-yl)amino)-1-oxo-3-phenylpropan-2-yl)thiophene-2-carboxamide]	50 µg/mL (≈ 128 µM)	33 µg/mL	25 µg/mL (≈ 64.2 µM)	0.39 µg/mL (≈ 1 µM)
O=C(NC(Cc1ccccc1)C(=O)Nc1ccccc1N1CCCC1)c1cccs1 (stereo not drawn) [IX-105, N-(1-oxo-3-phenyl-1-((2-(pyrrolidin-1-yl)phenyl)amino)propan-2-yl)thiophene-2-carboxamide]	25 µg/mL (≈ 59.6 µM)	>100 µg/mL	6.25 µg/mL (≈ 14.9 µM)	0.78 µg/mL (≈ 1.86 µM)
COc1cccc(NC(=O)C(Cc2ccccc2)NC(=O)c2cccs2)c1C (stereo not drawn) [IX-107, N-(1-((3-methoxy-2-methylphenyl)amino)-1-oxo-3-phenylpropan-2-yl)thiophene-2-carboxamide]	50 µg/mL (≈ 127 µM)	>100 µg/mL	> 50 µg/mL	0.78 µg/mL (≈ 1.98 µM)
COc1cccc(NC(=O)C(Cc2ccccc2)NC(=O)c2ccccc2F)c1C (stereo not drawn) [IX-108, 2-fluoro-N-(1-((3-methoxy-2-methylphenyl)amino)-1-oxo-3-phenylpropan-2-yl)benzamide]	25 µg/mL (≈ 61.5 µM)	80 µg/mL	12.5 µg/mL (≈ 30.8 µM)	0.78 µg/mL (≈ 1.92 µM)
Cc1ccccc1C(=O)NC(Cc1ccccc1)C(=O)Nc1cc(F)ccc1OCF (stereo not drawn) [IX-111, N-(1-((5-fluoro-2-(fluoromethoxy)phenyl)amino)-1-oxo-3-phenyl-propan-2-yl)-2-methylbenzamide]	0.78 µg/mL (≈ 1.84 µM)	100 µg/mL	0.39 µg/mL (≈ 0.919 µM)	0.39 µg/mL (≈ 0.919 µM)
O=C(NC(Cc1ccccc1)C(=O)Nc1ccccc1OC(F)F)c1ccccc1Cl (stereo not drawn) [IX-119, 2-chloro-N-(1-((2-(difluoromethoxy)phenyl)amino)-1-oxo-3-phenylpropan-2-yl)benzamide]	12.5 µg/mL (≈ 28.1 µM)	5.6 µg/mL	3.12 µg/mL (≈ 7.02 µM)	0.39 µg/mL (≈ 0.877 µM)
Cc1ccccc1C(=O)NC(Cc1ccccc1)C(=O)Nc1ccccc1OC(F)F (stereo not drawn) [IX-120, N-(1-((2-(difluoromethoxy)phenyl)amino)-1-oxo-3-phenylpropan-2-yl)-2-methylbenzamide]	3.12 µg/mL (≈ 7.36 µM)	>100 µg/mL	3.12 µg/mL (≈ 7.36 µM)	0.19 µg/mL (≈ 0.448 µM)
O=C(NC(Cc1ccccc1)C(=O)Nc1cccc2c1OC(F)(F)O2)c1ccccc1F (stereo not drawn) [IX-122, N-(1-((2,2-difluorobenzo[d][1,3]dioxol-4-yl)amino)-1-oxo-3-phenyl-propan-2-yl)-2-fluorobenzamide]	> 50 µg/mL	94 µg/mL	> 50 µg/mL	1.56 µg/mL (≈ 3.53 µM)
O=C(NC(Cc1ccccc1)C(=O)Nc1cccc2c1OC(F)(F)O2)c1cccs1 (stereo not drawn) [IX-124, N-(1-((2,2-difluorobenzo[d][1,3]dioxol-4-yl)amino)-1-oxo-3-phenyl-propan-2-yl)thiophene-2-carboxamide]	> 50 µg/mL	38 µg/mL	> 50 µg/mL	0.78 µg/mL (≈ 1.81 µM)
O=C(NC(Cc1ccccc1)C(=O)Nc1cccc2[nH]ncc12)c1ccccc1F (stereo not drawn) [IX-128, N-(1-((1H-indazol-4-yl)amino)-1-oxo-3-phenylpropan-2-yl)-2-fluorobenzamide]	25 µg/mL (≈ 62.1 µM)	58 µg/mL	12.5 µg/mL (≈ 31.1 µM)	0.39 µg/mL (≈ 0.969 µM)
O=C(NC(Cc1ccccc1)C(=O)Nc1ccccc1N1CCSCC1)c1ccccc1 (stereo not drawn) [IX-149, N-(1-oxo-3-phenyl-1-((2-thiomorpholinophenyl)amino)propan-2-yl)-benzamide]	> 50 µg/mL	>100 µg/mL	3.12 µg/mL (≈ 7.01 µM)	0.095 µg/mL (≈ 0.213 µM)
O=C(NC(Cc1ccccc1)C(=O)Nc1ccccc1N1CCNCC1)c1ccccc1 (stereo not drawn) [IX-150, N-(1-oxo-3-phenyl-1-((2-(piperazin-1-yl)phenyl)amino)propan-2-yl)-benzamide]	3.12 µg/mL (≈ 7.29 µM)	38 µg/mL	6.25 µg/mL (≈ 14.6 µM)	0.39 µg/mL (≈ 0.91 µM)
CN1CCN(c2ccccc2NC(=O)C(Cc2ccccc2)NC(=O)c2ccccc2)CC1 (stereo not drawn) [IX-151, N-(1-((2-(4-methylpiperazin-1-yl)phenyl)amino)-1-oxo-3-phenyl-propan-2-yl)benzamide]	12.5 µg/mL (≈ 28.2 µM)	35 µg/mL	12.5 µg/mL (≈ 28.2 µM)	0.78 µg/mL (≈ 1.76 µM)
O=C(NC(Cc1ccccc1)C(=O)Nc1ccccc1N1CCOCC1)c1ccccc1F (stereo not drawn) [IX-152, 2-fluoro-N-(1-((2-morpholinophenyl)amino)-1-oxo-3-phenylpropan-2-yl)benzamide]	3.12 µg/mL (≈ 6.98 µM)	90 µg/mL	1.56 µg/mL (≈ 3.49 µM)	0.073 µg/mL (≈ 0.163 µM)
Cc1ccccc1C(=O)NC(Cc1ccccc1)C(=O)Nc1ccccc1N1CCOCC1 (stereo not drawn) [IX-153, 2-methyl-N-(1-((2-morpholinophenyl)amino)-1-oxo-3-phenylpropan-2-yl)benzamide]	1.56 µg/mL (≈ 3.52 µM)	84 µg/mL	0.78 µg/mL (≈ 1.76 µM)	0.036 µg/mL (≈ 0.0812 µM)
O=C(NC(Cc1ccc(O)cc1)C(=O)Nc1ccccc1N1CCOCC1)c1ccccc1 (stereo not drawn) [IX-154, N-(3-(4-hydroxyphenyl)-1-((2-morpholinophenyl)amino)-1-oxo-propan-2-yl)benzamide]	1.56 µg/mL (≈ 3.5 µM)	>100 µg/mL	1.56 µg/mL (≈ 3.5 µM)	0.095 µg/mL (≈ 0.213 µM)
O=C(NC(Cc1ccc(O)cc1)C(=O)Nc1ccccc1N1CCOCC1)c1ccccc1F (stereo not drawn) [IX-155, 2-fluoro-N-(3-(4-hydroxyphenyl)-1-((2-morpholinophenyl)amino)-1-oxopropan-2-yl)benzamide]	12.5 µg/mL (≈ 27 µM)	77 µg/mL	1.56 µg/mL (≈ 3.37 µM)	0.195 µg/mL (≈ 0.421 µM)
Cc1ccccc1C(=O)NC(Cc1ccc(O)cc1)C(=O)Nc1ccccc1N1CCOCC1 (stereo not drawn) [IX-156, N-(3-(4-hydroxyphenyl)-1-((2-morpholinophenyl)amino)-1-oxopropan-2-yl)-2-methylbenzamide]	3.12 µg/mL (≈ 6.8 µM)	81 µg/mL	1.56 µg/mL (≈ 3.39 µM)	0.095 µg/mL (≈ 0.207 µM)
